Data set [1] has as its system Staphylococcus aureus. Briefly: Antibacterial activity against Staphylococcus aureus ATCC 25923 incubated with 0.2 to 0.02 ug/ml trypsin for 6 hrs followed by bacterial addition and measured after 18 hrs by CLSI based broth dilution method. Type of data set: functional, organism-based. The settings on record: dose 0.2-0.02 µg/ml, time 23.0 hrs. In general terms: Broth dilution looks for growth in wells or tubes with falling amounts of substance.

For data set [2], the system named is Escherichia coli. Briefly: Antibiofilm activity against Escherichia coli ATCC 25922 incubated for 24 hrs by crystal violet staining assay. Type of data set: functional, organism-based.
Another data set relates to Cell membrane. Briefly: Induction of outer membrane permeabilization in Klebsiella pneumoniae ATCC 700603 at 2 to 4 MIC by N-phenylnaphthylamine dye based fluorescent method. The class given is subcellular. The settings on record: Klebsiella pneumoniae 700603, 2 to 4 M.
The subject of data set [3] is Klebsiella pneumoniae. Briefly: Disruption of membrane integrity in Klebsiella pneumoniae ATCC 700603 assessed as membrane blebbing at 1 times MIC incubated for 0.5 to 2 hrs by scanning electron microscopy. Type of data set: functional, organism-based. The settings on record: time 0.5-2 hrs.
In data set [4] the test system is Staphylococcus aureus. Briefly: Drug localization in surface of Staphylococcus aureus ATCC 25923 at 2 times MIC incubated for 30 mins using ACD-labeled compound by PI-staining based laser scanning confocal microscopic analysis. Type of data set: functional, organism-based.
Data set [5] relates to Escherichia coli. As to the kind of experiment: Synergistic antibacterial activity against Escherichia coli ATCC 25922 at 2 times MIC incubated for 18 to 24 hrs in presence of 2 times MIC of polymyxin B by broth microdilution assay based checkerboard assay. Type of data set: functional. The settings on record: time 18-24 hrs.
For data set [6], the system named is Klebsiella pneumoniae. As to the kind of experiment: Synergistic antibacterial activity against Klebsiella pneumoniae ATCC 700603 at 2 times MIC incubated for 18 to 24 hrs in presence of 2 times MIC of polymyxin B by broth microdilution assay based checkerboard assay. The class given is functional. The settings on record: time 18-24 hrs.
Data set [7] concerns Klebsiella pneumoniae. Briefly: Antibacterial activity against Klebsiella pneumoniae ATCC 700603 infected in BALB/C mouse assessed as reduction in bacterial load in lung at 10 mg/kg, ip measured within 24 hrs by agar plate counting method (reference value: 2.77 x 10^7 CFU/mg). The class given is functional.
The subject of data set [8] is Klebsiella pneumoniae. Briefly: Antibacterial activity against Klebsiella pneumoniae ATCC 700603 infected in BALB/C mouse assessed as reduction in inflammatory response at 5 to 10 mg/kg, ip by hematoxylin and eosin staining based assay. The class given is functional, organism-based. The settings on record: dose 5-10 mg/kg.
Data set [9] is described as follows: Toxicity in BALB/C mouse assessed as effect on lung at 19 mg/kg, ip administered as single dose by hematoxylin and eosin staining based assay. Type of data set: organism-based. The settings on record: in vivo.
Data set [10] in a line: Toxicity in BALB/C mouse assessed as induction of inflammatory reaction at 19 mg/kg, ip administered as single dose by hematoxylin and eosin staining based assay. The class given is organism-based. The settings on record: in vivo.
Data set [11] in a line: Induction of glomerulus hemorrhage in BALB/C mouse at 82 mg/kg, ip administered as single dose by hematoxylin and eosin staining based assay. Type of data set: organism-based. The settings on record: in vivo.
A short description of data set [12]: Induction of renal interstitial cell hemorrhage in BALB/C mouse at 82 mg/kg, ip administered as single dose by hematoxylin and eosin staining based assay. The class given is organism-based. The settings on record: in vivo.
Data set [13] has as its system Klebsiella pneumoniae. As to the kind of experiment: Antibacterial activity against Klebsiella pneumoniae ATCC 700603 incubated with 2000 ug/ml chymotrypsin for 6 hrs followed by bacterial addition and measured after 18 hrs by CLSI based broth dilution method. The class given is functional, organism-based. The settings on record: dose 2000.0 µg/ml, time 23.0 hrs.

In data set [14] the test system is Klebsiella pneumoniae. Briefly: Reduction in inflammatory cell infiltration in lung of BALB/C mouse infected with Klebsiella pneumoniae ATCC 700603 at 5 mg/kg, ip by hematoxylin and eosin staining based assay. The class given is functional, organism-based.
The test system of data set [15] is Klebsiella pneumoniae. As to the kind of experiment: Antibacterial activity against Klebsiella pneumoniae ATCC 700603 infected in BALB/C mouse assessed as reduction in bacterial load at 5 mg/kg, ip by hematoxylin and eosin staining based assay. Type of data set: functional, organism-based.
The subject of data set [16] is Klebsiella pneumoniae. As to the kind of experiment: Antibacterial activity against Klebsiella pneumoniae ATCC 700603 infected in BALB/C mouse assessed as reduction in inflammatory cell infiltration in […] at 5 mg/kg, ip by hematoxylin and eosin staining based assay. The class given is functional, organism-based.
Data set [17] is described as follows: Toxicity in BALB/C mouse infected with Klebsiella pneumoniae ATCC 700603 assessed as change in liver color at 5 mg/kg, ip by hematoxylin and eosin staining based assay. The class given is organism-based. The settings on record: in vivo.

The source of these data is ChEMBL document CHEMBL4823282, “Novel Broad-Spectrum Antimicrobial Peptide Derived from Anoplin and Its Activity on Bacterial Pneumonia in Mice” (J Med Chem, 2021).

The source made the active and inactive calls. No cut-off for these calls is given here. Where a SMILES comes first, the peptide text is derived from it. Bridges are numbered along the chain shown (N, C = ends). [ ]: non-standard residue; d: D form. The star is where a group is joined. X1 = CC[C@H](C)CCCCC(=O)*; Dab = NCC[C@H](N)C(=O)O

`NCCCC[C@H](NC(=O)[C@H](CCCCN)NC(=O)[C@H](Cc1c[nH]c2ccccc12)NC(=O)[C@H](CCCCN)NC(=O)[C@H](CCCCN)NC(=O)[C@H](Cc1c[nH]c2ccccc12)NC(=O)[C@H](Cc1c[nH]c2ccccc12)NC(=O)[C@@H](N)CCCCN)C(=O)N[C@@H](Cc1c[nH]c2ccccc12)C(=O)N[C@@H](Cc1c[nH]c2ccccc12)C(N)=O` (H-KWWKKWKKWW-NH2): the outcome in the data set on Staphylococcus aureus [1], with Cell membrane, in the data set with Klebsiella pneumoniae [3], with Staphylococcus aureus [4] and with Klebsiella pneumoniae [8] was Active. The Activity result is “Dose-Dependent Effect” with Escherichia coli [2]; 3.26 10^3CFU/mg in the data set on Klebsiella pneumoniae [7]; “Toxic” in data set [9]; “Toxic” in data set [10]; “Toxic” in [11]; “Toxic” in data set [12]. For the same compound, the FIC in the data set on Escherichia coli [5] and in the data set on Klebsiella pneumoniae [6] was 0.3125 in each case.
Regarding `CC[C@H](C)CCCCC(=O)N[C@@H](CCN)C(=O)N[C@H](C(=O)N[C@@H](CCN)C(=O)N[C@H]1CCNC(=O)[C@H]([C@@H](C)O)NC(=O)[C@H](CCN)NC(=O)[C@H](CCN)NC(=O)[C@H](CC(C)C)NC(=O)[C@@H](Cc2ccccc2)NC(=O)[C@H](CCN)NC1=O)[C@@H](C)O` (X1-[Dab]T[Dab][Dab][Dab][dF]L[Dab][Dab]T; lactam 4-C), in the data set with Klebsiella pneumoniae [13], the result was Active. Moreover, the outcome in the data set on Klebsiella pneumoniae [14], with Klebsiella pneumoniae [15] and in the data set on Klebsiella pneumoniae [16] was inactive. The Activity result in data set [17] is “Toxic”.
